Source: patent US7871631B2, “Methods of inhibiting the lowering of antihuman TNF-α antibody” (Ajinomoto Co., Inc., priority 2004, dated 2011)

Columns and labels:
[1] = tested on: patient with small intestine/large intestine type Crohn's disease
[2] = tested on: patient with small intestine/large intestine type Crohn's disease; experiment: Clinical case: repeated administration of Infliximab under enteral administration of ELENTAL, Crohn's disease activity index (CDAI) and ulcer findings; type: in vivo, human; details: for CDAI two weeks later: ELENTAL continued
Experimental: A patient is a person, and they are the patient with small intestine/large intestine type Crohn's disease that began. By August 2002, Crohn's disease repeatedly recurred and they were hospitalized three times.
In July 2002, since Crohn's disease recurred again accompanied by stomachache, diarrhea and fever, 5 mg/kg of Infliximab (REMICADE® (trademark) 100 for drip infusion) under the enteral administration of 1200 kcal of ELENTAL® (trademark) was administered to the patient. The clinical activity index of Crohn's disease before the administration was 186 (150 or higher fall into the active stage). However, the index was lowered to 67 two weeks after the administration. During the period, an open longitudinal ulcer(s) seen in the transverse colon and sigmoid colon was cicatrized. After that, thought the patient was treated with the home enteral nutritional therapy, the symptoms recurred in February 2003 and CDAI increased up to 230. Continuing the enteral administration of ELENTAL® (trademark), Infliximab (5 mg/kg) was administered for the second time. Then, CDAI was lowered again to 63 two weeks later. […] Therefore, Infliximab (5 mg/kg) was administered for the third time, and CDAI was lowered to 80 two weeks later. Before and after the administration for the third time, it was confirmed that an open ulcer(s) of the sigmoid colon was cicatrized. Similarly, though CDAI increased in the 50th week, 68th week and 83rd week from the first administration, CDAI of 147 to 275 decreased to 50 to 80 […] by the fourth, fifth and sixth time administrations of Infliximab. During that time, administration of ELENTAL was continued.
Usually, the repeated administration of Infliximab promotes production of antibody and, therefore, its effect weakens in the repeated administration.

Infliximab
tuberculosis bacterium infection ([1]; first to sixth administration of Infliximab with ELENTAL): not seen
infection in organs of respiration or in a urinary tract ([1]; human, in vivo): no finding of indication of infection
CDAI at recurrence of symptoms ([2]; February 2003, after first Infliximab administration, under home enteral nutritional therapy, before second administration): 230
open ulcer(s) of the sigmoid colon ([2]; before and after the third administration of Infliximab 5 mg/kg under ELENTAL): cicatrized
open longitudinal ulcer(s) in the transverse colon and sigmoid colon ([2]; during the two weeks after first administration of Infliximab 5 mg/kg under ELENTAL): cicatrized
clinical activity index of Crohn's disease (CDAI) two weeks after the administration ([2]; first administration, Infliximab 5 mg/kg drip infusion under enteral ELENTAL 1200 kcal, index before administration 186 (150 or higher = active stage)): 67
CDAI two weeks later ([2]; second administration of Infliximab 5 mg/kg, CDAI before 230): 63
CDAI two weeks later ([2]; third administration of Infliximab 5 mg/kg, CDAI before 250): 80
CDAI increase under administration of ELENTAL ([2]; two months after second administration, before third administration): 250
